Test system: endothelial cells
Experiment: cell growth on surfaces carrying the bioactive (P15) coating
Type: cell-based
Settings: polymer sleeve covered with the peptide
Text: Chemical/biological testing such as MA (amino acid analysis), in vitro cell cultures followed by SEM (scanning electron microscopy), and in vivo testing can be used for evaluating the coatings of the present invention.

## H-Gly-Thr-Pro-Gly-Pro-Gln-Gly-Ile-Ala-Gly-Gln-Arg-Gly-Val-Val-OH (H-GTPGPQGIAGQRGVV-OH; also: covalently bound coating on PTFE) [P15]
  endothelial cell growth: stimulated

From US20090062899A1, “COMPOSITE STENT WITH POLYMERIC COVERING AND BIOACTIVE COATING” (NFOCUS NEUROMEDICAL, INC., priority 2001, published 2009)
